# Experimental data reported in US9023789B2, “Amylin analogs and pharmaceutical compositions thereof” (Novo Nordisk A/S, priority 2012, dated 2015).
# pEC50, pIC50: −log10 of the molar value. Where two headings read alike, the source gives them in different places. Numbered stars: 1 amine (or outer) side, 2 acyl side, 3 side chain; on linkers, the order of the positions; unused ones are H or OH. Bridge positions count the residues as written; N and C are the ends. Side chains are listed from the residue outwards. Peptide text beside a SMILES is read from it. * marks the point of attachment. C20 diacid = O=C(O)CCCCCCCCCCCCCCCCCCC(=O)*; γGlu = O=C(O)[C@H](CCC(=O)[*:2])N[*:1]
# How the values were obtained:
# Male Wistar rats = assay: ASSAY (XII) effect from single subcutaneous administration on plasma calcium in rats; format: in vivo, rat; settings: for Plasma calcium red (%) 0-12 h (maximal): single s.c., compared to vehicle; for suppression of plasma calcium level relative to vehicle: monitored over 24 hours
# Procedure, shortened: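 Male Wistar rats (~250 g), groups of five, received a single subcutaneous dose at time 0. Blood drawn at −15 min, 1, 2, 4, 7, 12 and 24 h; total calcium measured in heparin plasma, reported as mean±SEM.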
# Male Sprague-Dawley rats = assay: ASSAY (XI) single subcutaneous administration, food intake monitored for 48 hours in rats; format: in vivo, rat; settings: for Food intake red (%) 0-24 h / Food intake red (%) 24-48 h: single s.c., compared to vehicle; for food intake monitored over 48 hours: single subcutaneous administration, versus vehicle
# Procedure, shortened: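 Male Sprague-Dawley rats from Taconic Europe, weighing about 250 g on the test day, were singly housed in an online food intake monitoring system (Ellegaard MBRose, Denmark). Before the study they were acclimatized to a reversed light cycle, with lights on from 10 PM to 10 AM. Each rat then received one subcutaneous dose of the analogue, and data are reported as mean±SEM.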
# [1] = ASSAY (IV) determination of solubility; format: physicochemical
# Procedure, shortened: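 Polypeptide stock in water ([…]) was mixed 1:1 with 100 mM buffers: glycylglycine at pH 3.0, 4.0, 5.0 and bistrispropane at pH 6.0, 6.5, 7.0, 7.5, 8.0. After 18 hours at room temperature, samples were centrifuged and polypeptide concentration measured by UPLC.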
# [2] = ASSAY (X) pK, determination of T½ in rat; format: in vivo; settings: male, Sprague Dawley, plasma, iv, 20 nmol/kg
# [3] = target: T1, human calcitonin receptor (Homo sapiens, UniProt P30988); assay: ASSAY (VII) binding to the human calcitonin receptor (SPA, 125I-Calcitonin); settings: read-out: hCTR bind IC50;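 note: cell membranes (35 ng/µL) combined with SPA beads in 40 µL of pH 7.4 Hepes buffer, 384-well format, signal counted on a TopCounter instrument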
# T1 construct: expressed in transfected cells
# T1 sequence (P30988 25-474): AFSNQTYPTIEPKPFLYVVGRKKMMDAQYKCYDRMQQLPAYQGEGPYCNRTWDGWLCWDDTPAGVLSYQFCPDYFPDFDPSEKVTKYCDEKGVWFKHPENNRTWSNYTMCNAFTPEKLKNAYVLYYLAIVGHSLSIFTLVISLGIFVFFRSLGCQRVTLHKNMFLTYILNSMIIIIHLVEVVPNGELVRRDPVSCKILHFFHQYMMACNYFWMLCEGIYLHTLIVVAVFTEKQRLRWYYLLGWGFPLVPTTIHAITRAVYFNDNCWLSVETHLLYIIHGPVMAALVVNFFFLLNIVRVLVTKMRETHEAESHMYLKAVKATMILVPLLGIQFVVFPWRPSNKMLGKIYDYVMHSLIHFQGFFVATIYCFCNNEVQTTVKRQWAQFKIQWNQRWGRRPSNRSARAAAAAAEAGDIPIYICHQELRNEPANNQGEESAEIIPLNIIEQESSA
# [4] = target: T2, human calcitonin (a) receptor in BHK570 cells (Homo sapiens, UniProt P30988); assay: ASSAY (II)a functional assay, human calcitonin receptor (CRE luciferase); format: cell-based; settings: read-out: hCTR funct. EC50
# T2 construct: expressed in transfected cells
# T2 sequence (P30988 25-474): T1 sequence (P30988 25-474)
# Procedure, shortened: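 BHK cells stably carrying a CRE-luciferase reporter plus calcitonin receptor, or calcitonin receptor with RAMP-3 for the amylin 3(a) receptor, were seeded and kept overnight at 37° C. Compounds were added in assay medium with 10% FBS and 10 mM Hepes, pH 7.4, for 3 hours at 37° C, then luminescence was counted.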
# [5] = bistrispropane buffer, pH 6.5, read-out: Solubility pH 6.5 Concentration
# [6] = bistrispropane buffer, pH 7.5, read-out: Solubility pH 7.5 Concentration
# [7] = bistrispropane buffer, pH 6.0, read-out: Solubility pH 6.0 Concentration
# [8] = bistrispropane buffer, pH 7.0, read-out: Solubility pH 7.0 Concentration
# [9] = bistrispropane buffer, pH 8.0, read-out: Solubility pH 8.0 Concentration
# [10] = glycylglycine buffer, pH 3.0, read-out: Solubility pH 3.0 Concentration
# [11] = glycylglycine buffer, pH 4.0, read-out: Solubility pH 4.0 Concentration
# [12] = glycylglycine buffer, pH 5.0, read-out: Solubility pH 5.0 Concentration
"solubility at 18 h [1, 5] [µM]","solubility at 18 h [1, 6] [µM]","solubility at 18 h [1, 7] [µM]","solubility at 18 h [1, 8] [µM]","solubility at 18 h [1, 9] [µM]","solubility at 18 h [1, 10] [µM]","solubility at 18 h [1, 11] [µM]","solubility at 18 h [1, 12] [µM]",half-life [2] [h],pIC50 [3],pEC50 [4],Plasma calcium red (%) 0-12 h (maximal) (Male Wistar rats; 30 nmol/kg) [%],Compound,Food intake red (%) 0-24 h (Male Sprague-Dawley rats; 30 nmol/kg) [%],Food intake red (%) 24-48 h (Male Sprague-Dawley rats; 30 nmol/kg) [%],suppression of plasma calcium level relative to vehicle (Male Wistar rats; single subcutaneous 30 nmol/kg),food intake monitored over 48 hours (Male Sprague-Dawley rats; 30 nmol/kg),other results
190,≥ 200,≥ 200,≥ 200,≥ 200,≥ 200,≥ 200,≥ 200,28,,,,CC[C@H](C)[C@H](NC(=O)[C@H](C)NC(=O)CNC(=O)[C@H](Cc1ccccc1)NC(=O)[C@H](CC(N)=O)NC(=O)[C@@H]1CCCN1C(=O)[C@H](CO)NC(=O)[C@H](CO)NC(=O)[C@H](Cc1c[nH]cn1)NC(=O)[C@H](CCCNC(=N)N)NC(=O)[C@H](CC(C)C)NC(=O)[C@H](Cc1ccccc1)NC(=O)[C@H](CC(=O)O)NC(=O)[C@H](C)NC(=O)[C@H](CC(C)C)NC(=O)[C@H](CCCNC(=N)N)NC(=O)[C@H](CCC(N)=O)NC(=O)[C@@H](NC(=O)[C@H](C)NC(=O)[C@@H]1CSSC[C@H](NC(=O)[C@@H](N)CCCCNC(=O)CC[C@H](NC(=O)CC[C@H](NC(=O)CCCCCCCCCCCCCCCCCCC(=O)O)C(=O)O)C(=O)O)C(=O)N[C@@H](CC(N)=O)C(=O)N[C@@H]([C@@H](C)O)C(=O)N[C@@H](C)C(=O)N[C@@H]([C@@H](C)O)C(=O)N1)[C@@H](C)O)C(=O)N1CCC[C@H]1C(=O)N[C@@H](CO)C(=O)N[C@@H](CO)C(=O)N[C@H](C(=O)N[C@@H](CC(N)=O)C(=O)N[C@H](C(=O)NCC(=O)N[C@@H](CO)C(=O)N[C@@H](CC(=O)O)C(=O)N[C@H](C(=O)N[C@@H](Cc1ccc(O)cc1)C(N)=O)[C@@H](C)O)C(C)C)[C@@H](C)O [Example 2] (H-K([γGlu-γGlu-C20 diacid])CNTATCATQRLADFLRHSSPNFGAIPSSTNVGSDTY-NH2; disulfide 2-7; N-terminus assumed),72,62,,,Plasma calcium red (%) 0-12 h (maximal) (Male Wistar rats; 100 nmol/kg): 9%; suppression of plasma calcium level relative to vehicle (Male Wistar rats; single subcutaneous 100 nmol/kg): does not trigger a notable suppression of the calcium level; Food intake red (%) 0-24 h (Male Sprague-Dawley rats; 3 nmol/kg): 39%; Food intake red (%) 24-48 h (Male Sprague-Dawley rats; 3 nmol/kg): 10%
≥ 200,≥ 200,≥ 200,≥ 200,≥ 200,≥ 200,≥ 200,≥ 200,3,7.27,8.03,,CC[C@H](C)[C@H](NC(=O)[C@H](C)NC(=O)CNC(=O)[C@H](Cc1ccccc1)NC(=O)[C@H](CC(N)=O)NC(=O)[C@@H]1CCCN1C(=O)[C@H](CO)NC(=O)[C@H](CO)NC(=O)[C@H](Cc1c[nH]cn1)NC(=O)[C@H](CCCNC(=N)N)NC(=O)[C@H](CC(C)C)NC(=O)[C@H](Cc1ccccc1)NC(=O)[C@H](CCCNC(=N)N)NC(=O)[C@H](C)NC(=O)[C@H](CC(C)C)NC(=O)[C@H](CCCNC(=N)N)NC(=O)[C@H](CCC(N)=O)NC(=O)[C@@H](NC(=O)[C@H](C)NC(=O)[C@@H]1CSSC[C@H](NC(=O)[C@@H](N)CCCCNC(=O)CC[C@H](NC(=O)CCCCCCCCCCCCCCCCCCC(=O)O)C(=O)O)C(=O)N[C@@H](CC(N)=O)C(=O)N[C@@H]([C@@H](C)O)C(=O)N[C@@H](C)C(=O)N[C@@H]([C@@H](C)O)C(=O)N1)[C@@H](C)O)C(=O)N1CCC[C@H]1C(=O)N[C@@H](CO)C(=O)N[C@@H](CO)C(=O)N[C@H](C(=O)N[C@@H](CC(N)=O)C(=O)N[C@H](C(=O)NCC(=O)N1CCC[C@H]1C(=O)N[C@@H](CC(N)=O)C(=O)N[C@H](C(=O)N[C@@H](Cc1ccc(O)cc1)C(N)=O)[C@@H](C)O)C(C)C)[C@@H](C)O [Example 65] (H-K([γGlu-C20 diacid])CNTATCATQRLARFLRHSSPNFGAIPSSTNVGPNTY-NH2; disulfide 2-7 (inferred); N-terminus assumed),,,,,
≥ 200,162,≥ 200,172,149,≥ 200,≥ 200,≥ 200,23,7.49,7.95,7,CC[C@H](C)[C@H](NC(=O)[C@H](C)NC(=O)CNC(=O)[C@H](Cc1ccccc1)NC(=O)[C@H](CC(N)=O)NC(=O)[C@@H]1CCCN1C(=O)[C@H](CO)NC(=O)[C@H](CO)NC(=O)[C@H](Cc1c[nH]cn1)NC(=O)[C@H](CCCNC(=N)N)NC(=O)[C@H](CC(C)C)NC(=O)[C@H](Cc1ccccc1)NC(=O)[C@H](CCC(=O)O)NC(=O)[C@H](C)NC(=O)[C@H](CC(C)C)NC(=O)[C@H](CCCNC(=N)N)NC(=O)[C@H](CCC(N)=O)NC(=O)[C@@H](NC(=O)[C@H](C)NC(=O)[C@@H]1CSSC[C@H](NC(=O)[C@@H](N)CCCCNC(=O)CC[C@H](NC(=O)CC[C@H](NC(=O)CCCCCCCCCCCCCCCCCCC(=O)O)C(=O)O)C(=O)O)C(=O)N[C@@H](CC(N)=O)C(=O)N[C@@H]([C@@H](C)O)C(=O)N[C@@H](C)C(=O)N[C@@H]([C@@H](C)O)C(=O)N1)[C@@H](C)O)C(=O)N1CCC[C@H]1C(=O)N[C@@H](CO)C(=O)N[C@@H](CO)C(=O)N[C@H](C(=O)N[C@@H](CC(N)=O)C(=O)N[C@H](C(=O)NCC(=O)N[C@@H](CO)C(=O)N[C@@H](CCCNC(=N)N)C(=O)N[C@H](C(=O)N[C@@H](Cc1ccc(O)cc1)C(N)=O)[C@@H](C)O)C(C)C)[C@@H](C)O [Example 89] (H-K([γGlu-γGlu-C20 diacid])CNTATCATQRLAEFLRHSSPNFGAIPSSTNVGSRTY-NH2; disulfide 2-7 (inferred); N-terminus assumed),46,37,None of the example compounds at 30 nmol/kg trigger a notable suppression of the calcium level,reduce food intake,suppression of plasma calcium level relative to vehicle (Male Wistar rats; single subcutaneous 1000 nmol/kg): induces a more pronounced suppression of the calcium level
≥ 200,184,≥ 200,≥ 200,166,≥ 200,≥ 200,≥ 200,14,7.76,8.09,8,CC[C@H](C)[C@H](NC(=O)[C@H](C)NC(=O)CNC(=O)[C@H](Cc1ccccc1)NC(=O)[C@H](CC(N)=O)NC(=O)[C@@H]1CCCN1C(=O)[C@H](CO)NC(=O)[C@H](CO)NC(=O)[C@H](Cc1c[nH]cn1)NC(=O)[C@H](CCCNC(=N)N)NC(=O)[C@H](CC(C)C)NC(=O)[C@H](Cc1ccccc1)NC(=O)[C@H](CCC(=O)O)NC(=O)[C@H](C)NC(=O)[C@H](CC(C)C)NC(=O)[C@H](CCCNC(=N)N)NC(=O)[C@H](CCC(N)=O)NC(=O)[C@@H](NC(=O)[C@H](C)NC(=O)[C@@H]1CSSC[C@H](NC(=O)[C@@H](N)CCCCNC(=O)CC[C@H](NC(=O)CC[C@H](NC(=O)CCCCCCCCCCCCCCCCCCC(=O)O)C(=O)O)C(=O)O)C(=O)N[C@@H](CC(N)=O)C(=O)N[C@@H]([C@@H](C)O)C(=O)N[C@@H](C)C(=O)N[C@@H]([C@@H](C)O)C(=O)N1)[C@@H](C)O)C(=O)N1CCC[C@H]1C(=O)N[C@@H](CO)C(=O)N[C@@H](CO)C(=O)N[C@H](C(=O)N[C@@H](CC(N)=O)C(=O)N[C@H](C(=O)NCC(=O)N1CCC[C@H]1C(=O)N[C@@H](CCCNC(=N)N)C(=O)N[C@H](C(=O)N[C@@H](Cc1ccc(O)cc1)C(N)=O)[C@@H](C)O)C(C)C)[C@@H](C)O [Example 110] (H-K([γGlu-γGlu-C20 diacid])CNTATCATQRLAEFLRHSSPNFGAIPSSTNVGPRTY-NH2; disulfide 2-7),68,31,None of the example compounds at 30 nmol/kg trigger a notable suppression of the calcium level,reduces food intake,
